Source: patent publication US20230146782A1, “DEOXYCHOLIC ACID COMPOUNDS, PHARMACEUTICAL COMPOSITIONS AND USES THEREOF” (priority 2019, published 2023)
Values joined by “and” are separate entries in the source; they are usually repeats but may differ in a detail not shown here. Equal entries are not always repeated. Where two headings read alike, the source gives them in different places.

Legend:
[1] = rat
Experimental: (§1) Formulation of preparation and dosing: An appropriate amount of the test sample was precisely weighed, and mixed with an appropriate volume of a solvent to obtain a clear solution or a homogeneous suspension. The preparation was administered to animals within 4 hours after formulation. The dosage formulation would be administered by oral gavage in accordance with facility standard operating procedures. The dosage volume would be determined by the body weights of the animals collected on the morning of administering.
(§2) Blood collection: Blood (approx. 0.2 ml per point in time) would be acupunctured each time from the jugular vein of every animal into a polypropylene tube. All blood samples would be transferred to pre-cooled commercial EDTA-K2 test tubes, and kept on wet ice until they were centrifuged.
(§3) Plasma processing: Blood samples would be centrifuged (3200 rpm, 10 min) at approximately 4° C. Plasma was collected separately and transferred to pre-labeled PP tubes in wet ice at each point in time, and then immediately precipitated by ACN (6 IS) (the ratio of plasma: ACN was 1:4). Centrifugation (10 min, 12,000 rpm) was carried out again to obtain a supernatant. The supernatant was quickly frozen on dry ice and kept at −70±10° C. before LC/MS/MS analysis.
(§4) Liver processing: Liver tissues were collected at each point in time, washed twice with pre-cooled deionized water, and dried with filter paper. Liver tissues were immediately homogenized with 10-times volume of a methanol-water solution (1:2, v/v). After homogenization, a portion of liver tissue homogenate (e.g., 200 uL of homogenate) was immediately measured and delivered to an analyst. After precipitated on wet ice, the samples were centrifuged, and a supernatant was collected and stored in a refrigerator at −70±10° C. before LC-MS/MS analysis. From the remaining liver homogenate, 800 uL of the homogenate was measured as a spare.

[2] = Pharmacokinetic test: gavage to rats, active metabolites in plasma and liver by LC-MS/MS; conditions: for half-life: T1/2, rats; for half-life / Tlast: gavage of obeticholic acid
Experimental: as §1, §2, §3, §4

[3] = target: T1, farnesoid X receptor (FXR) (Homo sapiens, UniProt Q96RI1); conditions: reference literature: sandwich-cultured human hepatocytes; cited from earlier work
T1 sequence (Q96RI1 1-486): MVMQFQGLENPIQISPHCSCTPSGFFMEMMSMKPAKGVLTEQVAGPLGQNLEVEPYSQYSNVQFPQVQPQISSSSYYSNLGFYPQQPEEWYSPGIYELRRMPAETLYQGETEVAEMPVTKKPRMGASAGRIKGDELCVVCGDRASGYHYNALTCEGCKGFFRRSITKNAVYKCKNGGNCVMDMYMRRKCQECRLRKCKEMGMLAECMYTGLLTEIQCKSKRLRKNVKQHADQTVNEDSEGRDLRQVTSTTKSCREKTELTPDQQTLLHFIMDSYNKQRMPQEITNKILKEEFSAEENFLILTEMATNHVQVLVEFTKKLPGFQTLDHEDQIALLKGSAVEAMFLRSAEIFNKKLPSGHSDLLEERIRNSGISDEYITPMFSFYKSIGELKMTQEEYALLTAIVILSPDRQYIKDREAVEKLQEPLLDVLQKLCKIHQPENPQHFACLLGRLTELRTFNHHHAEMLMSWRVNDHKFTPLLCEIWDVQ

in vivo = conditions: rat, po
Experimental: as §1, §2, §3, §4

[4] = clinical treatment of liver diseases such as fatty liver; cited from earlier work
[5] = rat, plasma, po, 0.0576 mmol/kg

CC[C@@H]1C2C[C@H](O)CC[C@]2(C)[C@H]2CC[C@]3(C)[C@@H]([C@H](C)CCC(=O)NCC(=O)OCc4ccccc4)CC[C@H]3[C@@H]2[C@@H]1O (some centres unmarked) [Compound I-5]
In vivo active compounds in the rats after administration [1]: Compound 4
Decrease of AUC of the effective drug in the blood versus direct administration of OCA ([1]; in vivo): 84%
Increase of total AUC of Compound 4 in liver and plasma versus Compound 4 directly administered ([1]; in vivo): 28%
Total effective drug amount in the liver, compared with OCA ([1]; in vivo): significantly increased
AUC ratio of the obeticholic acid-glycine conjugate 4 in liver/plasma ([1]; in vivo, po): 18.7
Total AUC of the Compound 4 in the liver and plasma ([1]; in vivo, po): 150442

CCOC(=O)[C@@H](N)Cc1ccc(OC(=O)CNC(=O)CC[C@@H](C)[C@H]2CC[C@H]3[C@@H]4[C@H](O)[C@H](CC)C5C[C@H](O)CC[C@]5(C)[C@H]4CC[C@]23C)cc1 (some centres unmarked) [Compound I-6]
In vivo active compounds in the rats after administration [1]: Compound 4
Total effective drug amount in the liver, compared with OCA ([2]; rats, gavage, same molar dosage as OCA): significantly increased

CC[C@@H]1C2C[C@H](O)CC[C@]2(C)[C@H]2CC[C@]3(C)[C@@H]([C@H](C)CCC(=O)NCC(=O)OC(C)C)CC[C@H]3[C@@H]2[C@@H]1O (some centres unmarked) [Compound I-4]
In vivo active compounds in the rats after administration [1]: Compound 4
Total effective drug amount in the liver, compared with OCA ([1]; in vivo): significantly increased

CC[C@H]1[C@@H](O)[C@@H]2[C@H](CC[C@]3(C)[C@@H]([C@H](C)CCC(=O)NCCS(=O)(=O)O)CC[C@@H]23)[C@@]2(C)CC[C@@H](O)C[C@@H]12 [OCA-Tau, reference compound]
Effect on activation of the farnesoid X receptor (FXR) activity, compared with obeticholic acid [3]: almost the same as the effect of the obeticholic acid

CC[C@H]1[C@@H](O)[C@@H]2[C@H](CC[C@]3(C)[C@@H]([C@H](C)CCC(=O)NCC(=O)O)CC[C@@H]23)[C@@]2(C)CC[C@@H](O)C[C@@H]12 [Compound 4]
In vivo active compounds in the rats after administration [1]: Compound 4
Tlast ([1]; in vivo): 24.0 h
AUC0-last ([1]; in vivo, po): 107187 ng·h/g
AUC ratio of the obeticholic acid-glycine conjugate 4 in liver/plasma ([1]; in vivo, po): 14.7
AUC(0-inf) ([1]; in vivo, po): 110040 ng·h/g
Total AUC in plasma and liver ([1]; in vivo, po): 117503
Total AUC of the Compound 4 in the liver and plasma ([1]; in vivo, po): 117503
AUC Ratio (liver/plasma) ([1]; in vivo, po, 0.0576 mmol/kg): 42.3
Effect on activation of the farnesoid X receptor (FXR) activity, compared with obeticholic acid [3]: almost the same as the effect of the obeticholic acid
Kp (in vivo): 14.7
AUC(0-inf) (in vivo; 0.0576 mmol/kg): 7460 ng·h/mL
AUC(0-t) (in vivo; 0.0576 mmol/kg): 7310 ng·h/mL
Cmax (in vivo; 0.0576 mmol/kg): 788 ng/mL and 16800 ng/g
Tmax (in vivo; 0.0576 mmol/kg): 4 h
MRT inf (in vivo; 0.0576 mmol/kg, MRT0-inf): 6.1 h
MRT last (in vivo; 0.0576 mmol/kg, MRT0-last): 5.56 h
half-life (in vivo; 0.0576 mmol/kg, T1/2): 4.79 h

CC[C@H]1[C@@H](O)[C@@H]2[C@H](CC[C@]3(C)[C@@H]([C@H](C)CCC(=O)O)CC[C@@H]23)[C@@]2(C)CC[C@@H](O)C[C@@H]12 [OCA, 6-α-ethylchenodeoxycholic acid]
Kp ([2]; rat, liver and plasma (AUC ratio), po, 0.0576 mmol/kg): 0.663
Cmax ([2]; rat, liver, po, 0.0576 mmol/kg): 17900 ng/g
Tmax ([2]; rat, liver, po, 0.0576 mmol/kg): 0.5 h
half-life ([2]; rat, liver, po, 0.0576 mmol/kg, OCA in liver): 3.33 h
AUC(0-inf) [2, 5]: 50300 ng·h/mL
AUC(0-t) [2, 5]: 48100 ng·h/mL
Cmax [2, 5]: 24300 ng/mL
Tmax [2, 5]: 0.5 h
half-life ([2]; rat, plasma, po, 0.0576 mmol/kg, OCA in plasma): 4.35 h
Tlast ([2]; rats, 0.0576 mmol/kg, OCA in liver): 24.0 h
Tlast ([2]; rats, 0.0576 mmol/kg, OCA in plasma): 24.0 h
Incidence of pruritus [4]: 63%
Incidence of rash [4]: up to 32%
